Values of other authors, collected in patent publication US7687492B2, “1,2,4-Oxadiazole derivatives as dipeptidyl peptidase-IV inhibitors for the treatment or prevention of diabetes” (Merck Sharp & Dohme Corp., priority 2004, dated 2010).
Blank lines part the entries; values can stand above or below the molecule they belong to.

What was measured:
[1] = rats; Transplantation, 63: 1495-1500 (1997)
[2] = mouse, cyclophosphamide-induced neutropenia; WO 99/56753
DP-IV = target: T1, DP-IV (Homo sapiens, UniProt P27487)
T1 construct: GRF is rapidly degraded in plasma to GRF[3-44]; host or cells: plasma (endogenous enzyme activity)
T1 sequence (P27487 whole entry): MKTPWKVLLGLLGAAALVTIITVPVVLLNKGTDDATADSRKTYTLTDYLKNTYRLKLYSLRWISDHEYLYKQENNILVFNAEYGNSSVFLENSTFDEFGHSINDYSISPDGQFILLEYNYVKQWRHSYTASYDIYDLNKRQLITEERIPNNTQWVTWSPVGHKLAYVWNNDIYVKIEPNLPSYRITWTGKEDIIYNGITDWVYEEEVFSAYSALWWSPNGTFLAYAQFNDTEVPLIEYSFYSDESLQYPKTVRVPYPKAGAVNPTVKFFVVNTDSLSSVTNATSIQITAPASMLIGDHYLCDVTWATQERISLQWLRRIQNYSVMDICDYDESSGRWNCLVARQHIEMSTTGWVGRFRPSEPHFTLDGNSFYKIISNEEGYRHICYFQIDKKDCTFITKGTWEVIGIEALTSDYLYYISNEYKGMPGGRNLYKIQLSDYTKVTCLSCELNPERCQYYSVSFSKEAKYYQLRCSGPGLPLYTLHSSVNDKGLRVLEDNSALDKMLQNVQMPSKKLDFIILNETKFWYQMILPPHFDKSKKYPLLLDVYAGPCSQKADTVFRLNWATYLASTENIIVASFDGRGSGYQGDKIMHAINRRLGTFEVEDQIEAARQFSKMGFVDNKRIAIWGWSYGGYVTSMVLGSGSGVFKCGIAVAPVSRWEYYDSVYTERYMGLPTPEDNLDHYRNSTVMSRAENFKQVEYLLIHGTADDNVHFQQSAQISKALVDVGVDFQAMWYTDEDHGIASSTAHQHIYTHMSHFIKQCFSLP

Molecule: CC(C)N1CCC(c2ccccc2)(c2ccccc2)CC1 [Prodipine, Pro-Pro-diphenyl-phosphonate]
- cardiac allograft survival [1]: double cardiac allograft survival in rats from day 7 to day 14

Molecule: CC(C)[C@H](N)C(=O)N1CCC[C@H]1B(O)O [Val-Boro-Pro]
- hematopoiesis [2]: stimulated hematopoiesis

- degradation of GRF in plasma to GRF[3-44] (DP-IV): prevented
Molecule: diprotin A
